Here are results for 59 compounds from the METLIN SMRT retention time set (Domingo-Almenara et al. 2019).

The series can be described thus: gradient 5% acetonitrile 3 min, to 50% in 2 min, to 85% in 15 min, held 3 min, 100 µL/min. The note with it: column: Zorbax Extend-C18 2.1 x 50 mm; eluents: water / acetonitrile, 0.1% formic acid. In short, it runs like this:
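Each retention time is based on an adduct peak selected computationally and verified by manual inspection. Measurements used HPLC–quadrupole time-of-flight mass spectrometry in positive and negative ionization mode on mixtures of ~100 pure standards. Chromatography ran on a Zorbax Extend-C18 column (2.1 × 50 mm, 1.8 μm) at 100 μL/min with water and acetonitrile, each containing 0.1% formic acid, and dead and dwell volumes of 40 μL and 900 μL.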
Consider `CCCCN(C)C(=O)CN1C(=O)CCCc2cc(S(=O)(=O)N3CCC(C)CC3)ccc21`, for which the RP-LC retention time amounted to 971 s.
With `CN(C(=O)c1ccncc1)c1ccccc1` the figure was 667 s; with `COc1ccccc1NC(=O)CSc1nc2ccccc2c(=O)n1C1CCCCC1`, 1230 s; with `Cc1ccccc1CN1N=C(C(=O)N2CCCCC2)S(=O)(=O)c2ccccc21`, 1010 s.
Compound `CCOC(=O)c1ccc(NC(=O)C2CCCN(c3nnc4c(Cl)cccn34)C2)cc1` (centres undefined) had an RP-LC retention time of 802 s.
To `O=C(Nc1ccsn1)c1ccc(Cl)cc1Cl` belongs 874 s.
For `Cc1cccc(-c2noc(C3CCCN3C(=O)Nc3ccccc3C)n2)c1` (centres undefined), the RP-LC retention time worked out at 1010 s.
Take `COc1ccc(-c2ccc(N3CCCC(C(=O)NCc4cccs4)C3)nn2)cc1` (centres undefined): the RP-LC retention time amounted to 613 s.
`COc1ccc(N2CCN(c3cc(SCC(=O)Nc4cc(F)ccc4F)ncn3)CC2)cc1` came in with an RP-LC retention time of 1130 s.
`COc1cccc(C(=O)N2CCN(c3ccc(-c4ccccn4)nn3)CC2)c1OC`: the RP-LC retention time came out at 586 s.
`Cc1ccccc1CN1C[C@@H]2C(=O)N(CCCN3CCCC3=O)C(=O)[C@@H]2C1` had an RP-LC retention time of 606 s.
As to `Cn1nc2n(c1=O)CCC(NS(=O)(=O)c1cccc3cccnc13)CC2` (centres undefined), the RP-LC retention time was 648 s.
Compound `Cc1cccc(CNC(=O)C2CCN(C(=O)C3Sc4ccccc4NC3=O)CC2)c1` (centres undefined) yielded an RP-LC retention time of 762 s.
With `CC(C)NC(=O)c1ccc(OCC2CCN(C(=O)c3cc(F)ccc3Cl)CC2)cc1`, the RP-LC retention time amounted to 891 s.
Consider `COC(=O)c1ccc2c(=O)n(-c3cccc(OC)c3)c(N3CCOCC3)nc2c1`, for which the RP-LC retention time worked out at 887 s.
With `CCCN1C(=O)COc2cc(-c3noc(C(=O)NCCC4=CCCCC4)n3)ccc21` the figure was 1180 s; with `CC(C)Cn1cc(S(=O)(=O)Nc2ccccc2F)c2cccnc21`, 926 s; with `Cc1noc(C)c1S(=O)(=O)N1CCC(c2nnc(-c3ccco3)o2)CC1`, 756 s.
In the case of `C=C[C@H]1CN2CC[C@H]1C[C@H]2[C@H](O)c1ccnc2ccc(OC)cc12`, the RP-LC retention time was found to be 592 s.
`COc1ccc(-c2noc(Cc3nnc(-c4cc(F)cc(F)c4)o3)n2)cc1`: the RP-LC retention time is 1040 s.
Consider `O=C(Cn1cccc1-c1nc(-c2ccccc2)no1)Nc1ccc2c(c1)CCC2`, for which the RP-LC retention time is 1100 s.
As for `CCc1nc(-c2csc(S(=O)(=O)N3CCCC(C(=O)NCc4ccccc4)C3)c2)no1` (centres undefined), the RP-LC retention time amounted to 960 s.
In turn, `Cc1nc(Cn2cccc2C(=O)NC2CCCCCCC2)no1` had an RP-LC retention time of 954 s.
On to `CCN1C(=O)COc2ccc(-c3csc(NC(=O)CCc4ccccc4)n3)cc21`, for which the RP-LC retention time was 664 s.
Compound `CN(C)c1ccc(-c2nc3cnccn3c2Nc2cccc(C(=O)O)c2)cc1` registered an RP-LC retention time of 655 s.
Take `Cc1nn(C(C)C(=O)Nc2cccc(F)c2)c(=O)c2c(-n3cccc3)n(-c3ccccc3)nc12` (centres undefined): the RP-LC retention time worked out at 1120 s.
`CC(C)Cn1cc(S(=O)(=O)Nc2ccc(F)cc2Cl)c2cccnc21`: the RP-LC retention time was determined as 1010 s.
Take `Cc1nn(CC(=O)NCC2CCCO2)c(=O)c2nn(-c3ccccc3)c(C)c12` (centres undefined): the RP-LC retention time was 651 s.
`Cc1cccc(CN2C(=O)CN(S(C)(=O)=O)CC2(C)C(=O)NCc2ccc(Cl)cc2)c1` (centres undefined) returned an RP-LC retention time of 886 s.
With `O=C([C@@H]1C[C@H](F)CN1C(=O)c1ccccc1)N1CCCCC1` the figure was 668 s; with `O=C(Nc1ccc2c(c1)OCCO2)N1C[C@@H]2C[C@H]1C[C@@H]2NS(=O)(=O)c1ccccc1`, 678 s; with `CCSc1nnc(-c2nn(C)c3c2CN(S(=O)(=O)c2ccc(C)c(Cl)c2)CC3)n1CC`, 1050 s.
In turn, `Cc1ccc(-c2noc(-c3cccc(S(=O)(=O)N4CCN(C)CC4)c3)n2)cc1` came in with an RP-LC retention time of 735 s.
The compound `O=C(O)c1cnc(NCc2cccnc2)nc1-c1cccnc1` came in with an RP-LC retention time of 875 s.
`CN(C(=O)CSc1nnc(-c2cn(C)nc2-c2ccccc2)n1C)c1ccccc1` showed an RP-LC retention time of 712 s.
With `Cc1cc(Cl)ccc1S(=O)(=O)NCCn1c(C)cnc1C1CCC1`, the RP-LC retention time turned out to be 592 s.
For `Cn1nnc2cc(CNC(=O)c3ccc(F)cc3)ccc21`, the RP-LC retention time was found to be 686 s.
On to `Cc1cccc2c(C(N)=O)cc(N3CCCC3)nc12`, for which the RP-LC retention time stood at 570 s.
`O=C(c1n[nH]c2ccccc12)N1CCC[C@H]1c1nc(-c2ccccc2)n[nH]1` gave an RP-LC retention time of 683 s.
`COc1ccccc1N1CCN(c2cc(SCC(=O)Nc3ccccc3F)ncn2)CC1` displayed an RP-LC retention time of 1100 s.
With `CCOc1ccccc1CNC(=O)C1CCCN(c2nn3c(=O)c4c(nc3s2)CCCC4)C1` (centres undefined) the figure was 831 s; with `CCC(CC)C(=O)N1CCc2c(c(-c3nnc(-c4ccccc4Cl)o3)nn2C)C1`, 899 s.
To `Brc1cccc(-c2nc3ccccn3c2Nc2ccc3c(c2)OCO3)c1` belongs 726 s.
In turn, `Cc1ccc(C(=O)NC2CCN(c3cc(-c4ccc(Cl)cc4)[nH]n3)C2)cc1C` (centres undefined) yielded an RP-LC retention time of 860 s.
To `Cc1ccccc1CN1C(=O)CN(S(=O)(=O)c2ccccc2)CC1(C)C(=O)NC1CCCCC1` (centres undefined) belongs 1020 s.
The compound `Cc1ccc(-c2noc(-c3cccc(S(=O)(=O)Nc4ccc(C#N)cc4)c3)n2)cc1` showed an RP-LC retention time of 1140 s.
On to `CCc1nnc(-c2cc(C)n(CC(=O)Nc3ccc(Cl)cc3C)c2C)o1`, for which the RP-LC retention time amounted to 915 s.
In the case of `O=C1N(c2cccc(F)c2)c2ncccc2S(=O)(=O)N1Cc1ccccc1`, the RP-LC retention time was found to be 1020 s.
The compound `NC(=O)c1cnc(-c2ccc(Cl)cc2)n(CC(=O)N2CCCc3ccccc32)c1=O` gave an RP-LC retention time of 986 s.
For the compound `Cc1cc(=O)n(CC(=O)Nc2ccc(N(C)C)cc2)c(-c2ccccc2)n1`, the RP-LC retention time is 639 s.
The compound `O=C(NCc1cccs1)c1nc2ccccn2c1-c1ccsc1` returned an RP-LC retention time of 830 s.
With `Cc1cccc(C)c1NC(=O)Cn1cnc2nc(N3CCC(C(=O)NC(C)C)CC3)sc2c1=O`, the RP-LC retention time turned out to be 666 s.
Compound `O=C(Nc1cnc(N2CCCCC2)nc1)c1ccccc1Br` gave an RP-LC retention time of 902 s.
As to `O=C(C1CCCCCC1)N1CCC2(CC1)CC(O)CCO2` (centres undefined), the RP-LC retention time is 681 s.
The compound `CS(=O)(=O)N1CCC(OC2CCN(C(=O)Nc3ccccc3C(F)(F)F)CC2)CC1` showed an RP-LC retention time of 768 s.
With `O=C(c1ccc(Cl)c(Cl)c1)N1CCN(c2ccc(-c3ccco3)nn2)CC1` the figure was 733 s; with `Cc1cccc(C)c1NC(=O)Cn1cnc2onc(C)c2c1=O`, 731 s.
`COc1ccccc1NC(=O)c1csc2c1CCCC2` had an RP-LC retention time of 1190 s.
In turn, `COc1ccc(NC(=O)c2cnc3c(c2)c(=O)n(C)c(=O)n3-c2ccccc2)cc1` gave an RP-LC retention time of 862 s.
